Experimental data: patent US11512079B2, “Heterocycle substituted pyridine derivative antifungal agents” (Amplyx Pharmaceuticals, Inc., priority 2017, dated 2022)
Converted amounts (≈) assume the structure as drawn.

What was measured:
Type in all cases: cell-based
[1] = tested on: Cryptococcus gattii; assay: In vitro antifungal assay (Example IX), microdilution broth, MIC; details: minimum inhibitory concentration (≥50% inhibition), 35° C., 72 h (Cryptococcus), RPMI1640
Experimental: Preparation of Fungal Suspension. C. albicans 90028 and C. neoformans H99 strains were streaked from frozen stocks at −80° C. onto Sabouraud Dextrose Agar (SDA) plates. These were allowed to grow for 24 h (C. albicans) and 48 h (C. neoformans) at 35° C. before using them in the assay. 5-6 individual colonies were picked and diluted into sterile water to obtain a fungal suspension. The cell density of the suspension was determined and the culture diluted with RPMI1640 medium to obtain a fungal suspension of 2.5×10^3 cells/mL. The suspension was used in the MIC measurement as described below.
Preparation of Compound Stocks and Intermediate Dilutions: The compounds were weighed and DMSO was added to prepare a 10 mg/mL stock. The solutions were mixed by vortexing and sonication at 37° C. for 5-10 mins. The resulting solutions were sterile filtered using a PTFE filter, and aliquoted (12 μL or as needed) and stored at −20° C. Intermediate compound dilutions were prepared in sterile polypropylene tubes in 100% DMSO. The compound stock solution was first diluted in DMSO to obtain a concentration of […] to 0.19 μg/mL.
MIC/MEC Measurement: 99 μL 1 of the fungal suspension in RPMI1640 prepared as above was added to each well of a 96-well round bottom assay plate. 1 μL of the intermediate compound dilutions (200-0.19 μg/mL) were added to wells of the plate. This led to a 100-fold dilution of the intermediate dilutions resulting in a final compound concentration of 2-0.0019 μg/mL in the plate. 1 μL of DMSO was added to “No drug” control wells. The solutions were mixed by shaking on a plate shaker for 10 mins and plates incubated at 35° C. for 40-48 h (C. albicans, A. fumigatus, R. pusillus) and 72 h (Cryptococcus). […] This was validated by thorough mixing and reading at 600 nm on a microplate reader. The minimum concentration that led to shortening of hyphae as compared to hyphal growth in DMSO control wells was determined as the minimum effective concentration (MEC) for A. fumigatus and R. pusillus (as read for echinocandins). The use of the MIC and MEC endpoints against yeasts and molds, respectively has been described by Pfaller M A, Duncanson F, Messer S A, Moet G J, Jones R N, Castanheira M. Antimicrob Agents Chemother. 2011. 55(11):5155-8. In vitro activity of a novel broad-spectrum antifungal, E1210, tested against Aspergillus spp. determined by CLSI and EUCAST broth microdilution methods. Results are shown in Table 2, and the letters indicate the following ranges in μg/mL: […]

[2] = tested on: Aspergillus fumigatus MYA3626; assay: In vitro antifungal assay (Example IX), microdilution broth, MEC; details: minimum effective concentration (shortening of hyphae), 35° C., 40-48 h, RPMI1640
In short: (§1)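 Spore suspensions of A. fumigatus and R. pusillus adjusted to 1-2×10^4 spores/mL in RPMI1640 and exposed to compound dilutions prepared in DMSO, by broth microdilution. MEC taken as the lowest concentration shortening hyphae versus DMSO control wells, read as for echinocandins.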

[3] = tested on: Rhizomucor pusillus 46342; assay: as above; details: minimum effective concentration (shortening of hyphae), 35° C., 40-48 h, RPMI1640
In short: as §1

[4] = tested on: Cryptococcus neoformans H99; assay: In vitro antifungal assay (Example IX), microdilution broth, MIC; details: minimum inhibitory concentration (≥50% inhibition), 35° C., 72 h, RPMI1640
In short: (§2)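 CLSI broth microdilution in RPMI1640 with 2.5×10^3 cells/mL and final compound concentrations of 2-0.0019 μg/mL (1% DMSO). C. albicans 90028 plates were incubated at 35° C. for 40-48 h and C. neoformans H99 for 72 h. MIC was read as minimum inhibitory concentration, verified at 600 nm.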

[5] = tested on: Candida albicans 90028; assay: as above; details: minimum inhibitory concentration (≥50% inhibition), 35° C., 40-48 h, RPMI1640
In short: as §2

Row | Structure (SMILES) | MIC [1] | minimal effective concentration [2] | minimal effective concentration [3] | MIC [4] | MIC [5]
1 | Nc1ncccc1-c1cc(Cc2ccc(OCc3cccc(F)c3)cc2)no1 [Example 138, 3-(3-(4-((3-fluorobenzyl)oxy)benzyl)isoxazol-5-yl)pyridin-2-amine] | ≤ 0.01 µg/mL | 0.01 to 0.1 µg/mL | 0.1 to 1 µg/mL | 0.01 to 0.1 µg/mL (≈ 0.0266 to 0.266 µM) | 0.01 to 0.1 µg/mL (≈ 0.0266 to 0.266 µM)
2 | Nc1ncccc1-c1cc(Cc2ccc(OCc3ccncc3)cc2)no1 [Example 139, 3-(3-(4-(pyridin-4-ylmethoxy)benzyl)isoxazol-5-yl)pyridin-2-amine] | ≤ 0.01 µg/mL | 0.1 to 1 µg/mL | > 1 µg/mL | 0.01 to 0.1 µg/mL (≈ 0.0279 to 0.279 µM) | 0.01 to 0.1 µg/mL (≈ 0.0279 to 0.279 µM)
3 | Nc1ncccc1-c1cc(Cc2ccc(OCc3ccccn3)cc2)no1 [Example 140, 3-(3-(4-(pyridin-2-ylmethoxy)benzyl)isoxazol-5-yl)pyridin-2-amine] | 0.01 to 0.1 µg/mL (≈ 0.0279 to 0.279 µM) | 0.01 to 0.1 µg/mL | 0.1 to 1 µg/mL | 0.01 to 0.1 µg/mL (≈ 0.0279 to 0.279 µM) | ≤ 0.01 µg/mL
4 | Nc1ncccc1-c1cc(Cc2ccc(OCc3ccccc3F)cc2)no1 [Example 141, 3-(3-(4-((2-fluorobenzyl)oxy)benzyl)isoxazol-5-yl)pyridin-2-amine] | 0.01 to 0.1 µg/mL (≈ 0.0266 to 0.266 µM) | 0.01 to 0.1 µg/mL | 0.1 to 1 µg/mL | 0.01 to 0.1 µg/mL (≈ 0.0266 to 0.266 µM) | 0.01 to 0.1 µg/mL (≈ 0.0266 to 0.266 µM)
5 | Nc1ncccc1-c1cc(Cc2ccc(Oc3ccccc3)nc2)no1 [Example 143, 3-(3-((6-phenoxypyridin-3-yl)methyl)isoxazol-5-yl)pyridin-2-amine] | ≤ 0.01 µg/mL | 0.01 to 0.1 µg/mL | 0.1 to 1 µg/mL | 0.01 to 0.1 µg/mL (≈ 0.029 to 0.29 µM) | 0.1 to 1 µg/mL (≈ 0.29 to 2.9 µM)
6 | Nc1ncccc1-c1cc(Cc2ccc(Nc3ccccc3)cc2)no1 [Example 144, 3-(3-(4-(phenylamino)benzyl)isoxazol-5-yl)pyridin-2-amine] | 0.01 to 0.1 µg/mL (≈ 0.0292 to 0.292 µM) | 0.01 to 0.1 µg/mL | 0.1 to 1 µg/mL | 0.01 to 0.1 µg/mL (≈ 0.0292 to 0.292 µM) | 0.01 to 0.1 µg/mL (≈ 0.0292 to 0.292 µM)
7 | Nc1ncccc1-c1cc(Cc2ccnc(OCCc3cccc(F)c3)c2)no1 [Example 146, 3-(3-((2-(3-fluorophenethoxy)pyridin-4-yl)methyl)isoxazol-5-yl)pyridin-2-amine] | 0.1 to 1 µg/mL (≈ 0.256 to 2.56 µM) | > 1 µg/mL | > 1 µg/mL | 0.1 to 1 µg/mL (≈ 0.256 to 2.56 µM) | 0.1 to 1 µg/mL (≈ 0.256 to 2.56 µM)
8 | Nc1ncccc1-c1cc(Cc2ccnc(OCc3ccccc3)c2)no1 [Example 148, 3-(3-((2-(benzyloxy)pyridin-4-yl)methyl)isoxazol-5-yl)pyridin-2-amine] | 0.01 to 0.1 µg/mL (≈ 0.0279 to 0.279 µM) | 0.01 to 0.1 µg/mL | 0.1 to 1 µg/mL | 0.01 to 0.1 µg/mL (≈ 0.0279 to 0.279 µM) | 0.01 to 0.1 µg/mL (≈ 0.0279 to 0.279 µM)
9 | Nc1ncccc1-c1cc(Cc2ccnc(OCc3ccccc3F)c2)no1 [Example 149, 3-(3-((2-((2-fluorobenzyl)oxy)pyridin-4-yl)methyl)isoxazol-5-yl)pyridin-2-amine] | 0.1 to 1 µg/mL (≈ 0.266 to 2.66 µM) | 0.01 to 0.1 µg/mL | > 1 µg/mL | 0.01 to 0.1 µg/mL (≈ 0.0266 to 0.266 µM) | 0.01 to 0.1 µg/mL (≈ 0.0266 to 0.266 µM)
10 | Nc1ncccc1-c1cc(Cc2ccnc(OCC3CC3)c2)no1 [Example 150, 3-(3-((2-(cyclopropylmethoxy)pyridin-4-yl)methyl)isoxazol-5-yl)pyridin-2-amine] | 0.1 to 1 µg/mL (≈ 0.31 to 3.1 µM) | 0.1 to 1 µg/mL | > 1 µg/mL | 0.1 to 1 µg/mL (≈ 0.31 to 3.1 µM) | 0.1 to 1 µg/mL (≈ 0.31 to 3.1 µM)
11 | Nc1ncccc1-c1cc(Cc2ccc(OCc3ccnc(F)c3)nc2)no1 [Example 154, 3-(3-((6-((2-fluoropyridin-4-yl)methoxy)pyridin-3-yl)methyl)isoxazol-5-yl)pyridin-2-amine] | 0.01 to 0.1 µg/mL (≈ 0.0265 to 0.265 µM) | 0.01 to 0.1 µg/mL | 0.1 to 1 µg/mL | 0.01 to 0.1 µg/mL (≈ 0.0265 to 0.265 µM) | 0.01 to 0.1 µg/mL (≈ 0.0265 to 0.265 µM)
12 | Nc1ncccc1-c1cc(Cc2ccc(OCCn3cccn3)nc2)no1 [Example 156, 3-(3-((6-(2-(1H-pyrazol-1-yl)ethoxy)pyridin-3-yl)methyl)isoxazol-5-yl)pyridin-2-amine] | > 1 µg/mL | > 1 µg/mL | > 1 µg/mL | 0.1 to 1 µg/mL (≈ 0.276 to 2.76 µM) | 0.1 to 1 µg/mL (≈ 0.276 to 2.76 µM)
13 | C#CCOc1ccc(Cc2cc(-c3cccnc3N)on2)cn1 [Example 157, 3-(3-((6-(prop-2-yn-1-yloxy)pyridin-3-yl)methyl)isoxazol-5-yl)pyridin-2-amine] | 0.1 to 1 µg/mL (≈ 0.326 to 3.26 µM) | 0.1 to 1 µg/mL | 0.1 to 1 µg/mL | 0.1 to 1 µg/mL (≈ 0.326 to 3.26 µM) | > 1 µg/mL
14 | Nc1ncccc1-c1cc(Cc2ccc(Oc3ccc(F)cc3)nc2)no1 [Example 160, 3-(3-((6-(4-fluorophenoxy)pyridin-3-yl)methyl)isoxazol-5-yl)pyridin-2-amine] | 0.1 to 1 µg/mL (≈ 0.276 to 2.76 µM) | 0.01 to 0.1 µg/mL | 0.1 to 1 µg/mL | 0.1 to 1 µg/mL (≈ 0.276 to 2.76 µM) | 0.1 to 1 µg/mL (≈ 0.276 to 2.76 µM)
15 | Nc1ncccc1-c1cc(Cc2ccc(Oc3cccc(Cl)c3)nc2)no1 [Example 161, 3-(3-((6-(3-chlorophenoxy)pyridin-3-yl)methyl)isoxazol-5-yl)pyridin-2-amine] | 0.01 to 0.1 µg/mL (≈ 0.0264 to 0.264 µM) | 0.01 to 0.1 µg/mL | 0.1 to 1 µg/mL | 0.01 to 0.1 µg/mL (≈ 0.0264 to 0.264 µM) | 0.01 to 0.1 µg/mL (≈ 0.0264 to 0.264 µM)
16 | COc1cc(COc2ccc(Cc3cc(-c4cccnc4N)on3)cn2)ccn1 [Example 165, 3-(3-((6-((2-methoxypyridin-4-yl)methoxy)pyridin-3-yl)methyl)isoxazol-5-yl)pyridin-2-amine] | 0.01 to 0.1 µg/mL (≈ 0.0257 to 0.257 µM) | 0.01 to 0.1 µg/mL | 0.1 to 1 µg/mL | 0.01 to 0.1 µg/mL (≈ 0.0257 to 0.257 µM) | 0.1 to 1 µg/mL (≈ 0.257 to 2.57 µM)
17 | Nc1ncccc1-c1cc(Cc2ccc(COc3ccccc3F)cc2)no1 [Example 168, 3-(3-(4-((2-fluorophenoxy)methyl)benzyl)isoxazol-5-yl)pyridin-2-amine] | 0.01 to 0.1 µg/mL (≈ 0.0266 to 0.266 µM) | 0.01 to 0.1 µg/mL | 0.1 to 1 µg/mL | 0.1 to 1 µg/mL (≈ 0.266 to 2.66 µM) | 0.01 to 0.1 µg/mL (≈ 0.0266 to 0.266 µM)
18 | Nc1ncccc1-c1cc(Cc2ccc(COc3cccc(F)c3)cc2)no1 [Example 169, 3-(3-(4-((3-fluorophenoxy)methyl)benzyl)isoxazol-5-yl)pyridin-2-amine] | 0.01 to 0.1 µg/mL (≈ 0.0266 to 0.266 µM) | 0.01 to 0.1 µg/mL | 0.1 to 1 µg/mL | 0.01 to 0.1 µg/mL (≈ 0.0266 to 0.266 µM) | 0.01 to 0.1 µg/mL (≈ 0.0266 to 0.266 µM)
19 | Nc1ncccc1-c1cc(Cc2ccc(Cn3cccn3)cc2)no1 [compound 1, 3-(3-(4-((1H-pyrazol-1-yl)methyl)benzyl)isoxazol-5-yl)pyridin-2-amine] | 0.01 to 0.1 µg/mL (≈ 0.0302 to 0.302 µM) | 0.1 to 1 µg/mL | > 1 µg/mL | 0.1 to 1 µg/mL (≈ 0.302 to 3.02 µM) | 0.01 to 0.1 µg/mL (≈ 0.0302 to 0.302 µM)
20 | Nc1ncccc1-c1cc(Cc2cnc(Oc3cccc(F)c3)c(F)c2)no1 [compound 256, 3-(3-((5-fluoro-6-(3-fluorophenoxy)pyridin-3-yl)methyl)isoxazol-5-yl)pyridin-2-amine] | > 1 µg/mL | 0.1 to 1 µg/mL | – | 0.1 to 1 µg/mL (≈ 0.263 to 2.63 µM) | 0.01 to 0.1 µg/mL (≈ 0.0263 to 0.263 µM)
21 | Nc1ncccc1-c1cc(Cc2ccc(Oc3ncccn3)c(F)c2)no1 [compound 259, 3-(3-(3-fluoro-4-(pyrimidin-2-yloxy)benzyl)isoxazol-5-yl)pyridin-2-amine] | > 1 µg/mL | 0.01 to 0.1 µg/mL | – | 0.1 to 1 µg/mL (≈ 0.275 to 2.75 µM) | > 1 µg/mL
22 | Nc1ncccc1-c1cc(Cc2cnc(OCc3ccccc3F)c(F)c2)no1 [compound 260, 3-(3-((5-fluoro-6-((2-fluorobenzyl)oxy)pyridin-3-yl)methyl)isoxazol-5-yl)pyridin-2-amine] | > 1 µg/mL | 0.1 to 1 µg/mL | – | 0.1 to 1 µg/mL (≈ 0.254 to 2.54 µM) | 0.1 to 1 µg/mL (≈ 0.254 to 2.54 µM)
